Like-named read-outs stand apart in the source and are kept apart here.
Legend:
Assay in all cases: biochemical
Set-up in all cases: In vitro kinase panel profiling, per cent remaining kinase activity at 10 uM
Rse(h) = target: T1, Rse(h) (Homo sapiens, UniProt Q06418); details: atp_concentration=45, read-out: % of control remaining
T1 construct: gene TYRO3
T1 sequence (Q06418 1-890): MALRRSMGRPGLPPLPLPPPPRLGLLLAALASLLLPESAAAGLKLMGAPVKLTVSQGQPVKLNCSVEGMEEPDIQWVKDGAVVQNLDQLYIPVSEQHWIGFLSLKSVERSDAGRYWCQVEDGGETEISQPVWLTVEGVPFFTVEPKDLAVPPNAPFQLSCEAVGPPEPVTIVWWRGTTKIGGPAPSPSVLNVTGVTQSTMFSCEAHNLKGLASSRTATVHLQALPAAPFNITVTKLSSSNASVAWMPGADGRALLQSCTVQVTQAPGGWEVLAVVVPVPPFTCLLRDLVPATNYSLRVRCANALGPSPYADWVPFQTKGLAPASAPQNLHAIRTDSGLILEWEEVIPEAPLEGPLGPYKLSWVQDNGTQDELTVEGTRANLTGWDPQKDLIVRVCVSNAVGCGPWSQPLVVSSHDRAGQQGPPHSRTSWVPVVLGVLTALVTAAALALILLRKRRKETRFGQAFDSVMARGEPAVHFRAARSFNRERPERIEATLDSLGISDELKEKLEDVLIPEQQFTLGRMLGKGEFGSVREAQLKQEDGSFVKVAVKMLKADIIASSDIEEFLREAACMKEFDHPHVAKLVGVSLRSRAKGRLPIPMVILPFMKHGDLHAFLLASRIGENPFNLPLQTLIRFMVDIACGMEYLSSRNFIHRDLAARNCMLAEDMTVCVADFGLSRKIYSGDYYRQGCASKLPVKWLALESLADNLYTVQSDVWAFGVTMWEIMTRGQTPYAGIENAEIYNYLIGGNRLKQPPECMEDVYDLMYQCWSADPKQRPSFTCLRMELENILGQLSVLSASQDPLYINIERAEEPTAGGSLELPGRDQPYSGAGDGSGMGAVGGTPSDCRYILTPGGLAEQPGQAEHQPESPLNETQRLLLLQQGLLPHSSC
Source text: (§1) We derisk potential for off-target activity by profiling the compound in a CEREP panel, a standard secondary pharmacology assessment, as well as a kinase panel to derisk a potential hinge-binding motif in our leads, and a PARP panel to derisk activity against human […]. Reassuringly, the compounds are selective, with the only off-targets being moderate human CHRM2 and KOR receptors activity associated with ASAP-0011198.

PDGFRβ(h) = target: T2, PDGFRβ(h) (Homo sapiens, UniProt P09619); details: atp_concentration=200, read-out: % of control remaining
T2 construct: gene PDGFRB
T2 sequence (P09619 whole entry): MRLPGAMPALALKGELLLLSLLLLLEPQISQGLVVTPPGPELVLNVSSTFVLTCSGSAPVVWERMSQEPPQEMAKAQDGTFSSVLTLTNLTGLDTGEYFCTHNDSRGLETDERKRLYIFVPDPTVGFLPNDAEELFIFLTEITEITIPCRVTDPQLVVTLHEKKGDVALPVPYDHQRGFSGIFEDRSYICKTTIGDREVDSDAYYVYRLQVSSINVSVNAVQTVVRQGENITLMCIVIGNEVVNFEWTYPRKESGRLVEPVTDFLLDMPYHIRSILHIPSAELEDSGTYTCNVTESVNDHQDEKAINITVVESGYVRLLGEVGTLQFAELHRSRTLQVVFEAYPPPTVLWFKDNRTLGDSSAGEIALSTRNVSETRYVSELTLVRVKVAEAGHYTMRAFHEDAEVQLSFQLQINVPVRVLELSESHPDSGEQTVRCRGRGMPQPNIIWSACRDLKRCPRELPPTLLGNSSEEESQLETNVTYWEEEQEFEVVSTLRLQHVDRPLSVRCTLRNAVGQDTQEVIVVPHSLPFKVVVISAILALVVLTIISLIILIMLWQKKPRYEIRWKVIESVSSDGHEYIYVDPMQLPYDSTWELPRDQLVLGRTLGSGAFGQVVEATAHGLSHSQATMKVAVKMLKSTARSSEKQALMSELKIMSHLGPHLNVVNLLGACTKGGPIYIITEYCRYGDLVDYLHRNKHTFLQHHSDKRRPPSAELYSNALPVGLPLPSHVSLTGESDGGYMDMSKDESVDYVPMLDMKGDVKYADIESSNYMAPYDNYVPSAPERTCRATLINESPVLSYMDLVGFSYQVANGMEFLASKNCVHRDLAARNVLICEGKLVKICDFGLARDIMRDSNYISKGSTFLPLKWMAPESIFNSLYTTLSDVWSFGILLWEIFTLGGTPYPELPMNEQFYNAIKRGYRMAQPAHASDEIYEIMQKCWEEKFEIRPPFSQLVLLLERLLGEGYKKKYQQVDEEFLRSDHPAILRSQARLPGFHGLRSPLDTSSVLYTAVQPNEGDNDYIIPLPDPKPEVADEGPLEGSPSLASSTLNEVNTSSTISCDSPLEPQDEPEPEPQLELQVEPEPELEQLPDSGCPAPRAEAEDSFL
Source text: as §1

Mnk2(h) = target: T3, Mnk2(h) (Homo sapiens, UniProt Q9HBH9); details: atp_concentration=120, read-out: % of control remaining
T3 construct: gene MKNK2
Source text: as §1

[1] = target: T4, PI3 Kinase (p110β/p85α)(h) (Homo sapiens, UniProt P42338); details: atp_concentration=200, read-out: % of control remaining
T4 construct: gene PIK3CB
T4 sequence (P42338 whole entry): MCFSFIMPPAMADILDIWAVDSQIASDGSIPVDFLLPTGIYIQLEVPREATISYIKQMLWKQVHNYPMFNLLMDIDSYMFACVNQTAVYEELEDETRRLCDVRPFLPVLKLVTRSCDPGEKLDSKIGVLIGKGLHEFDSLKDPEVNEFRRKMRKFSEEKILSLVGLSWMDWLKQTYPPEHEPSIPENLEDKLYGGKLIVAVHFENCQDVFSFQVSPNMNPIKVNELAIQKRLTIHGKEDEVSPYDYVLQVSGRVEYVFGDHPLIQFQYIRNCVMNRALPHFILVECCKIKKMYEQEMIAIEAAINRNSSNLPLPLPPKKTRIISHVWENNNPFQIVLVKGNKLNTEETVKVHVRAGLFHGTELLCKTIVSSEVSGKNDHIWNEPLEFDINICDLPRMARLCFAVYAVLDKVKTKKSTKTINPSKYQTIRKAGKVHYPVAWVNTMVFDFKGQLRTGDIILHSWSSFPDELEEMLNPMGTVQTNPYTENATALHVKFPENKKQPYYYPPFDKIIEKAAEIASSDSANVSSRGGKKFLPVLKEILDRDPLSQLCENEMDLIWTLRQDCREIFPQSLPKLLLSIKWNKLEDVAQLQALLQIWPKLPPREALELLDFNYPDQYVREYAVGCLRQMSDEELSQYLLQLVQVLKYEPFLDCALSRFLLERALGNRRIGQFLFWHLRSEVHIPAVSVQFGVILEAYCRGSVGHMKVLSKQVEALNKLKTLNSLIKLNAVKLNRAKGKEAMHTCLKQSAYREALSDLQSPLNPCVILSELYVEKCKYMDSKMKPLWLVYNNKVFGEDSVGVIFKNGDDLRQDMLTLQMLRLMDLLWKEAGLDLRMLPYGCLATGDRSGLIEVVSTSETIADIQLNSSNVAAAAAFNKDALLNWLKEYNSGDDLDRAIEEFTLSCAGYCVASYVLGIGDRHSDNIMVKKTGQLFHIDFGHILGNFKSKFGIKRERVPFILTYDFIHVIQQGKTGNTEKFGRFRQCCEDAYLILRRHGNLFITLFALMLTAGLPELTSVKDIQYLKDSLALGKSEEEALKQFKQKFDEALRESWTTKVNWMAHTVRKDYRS
T4 sequence (P27986 whole entry partner): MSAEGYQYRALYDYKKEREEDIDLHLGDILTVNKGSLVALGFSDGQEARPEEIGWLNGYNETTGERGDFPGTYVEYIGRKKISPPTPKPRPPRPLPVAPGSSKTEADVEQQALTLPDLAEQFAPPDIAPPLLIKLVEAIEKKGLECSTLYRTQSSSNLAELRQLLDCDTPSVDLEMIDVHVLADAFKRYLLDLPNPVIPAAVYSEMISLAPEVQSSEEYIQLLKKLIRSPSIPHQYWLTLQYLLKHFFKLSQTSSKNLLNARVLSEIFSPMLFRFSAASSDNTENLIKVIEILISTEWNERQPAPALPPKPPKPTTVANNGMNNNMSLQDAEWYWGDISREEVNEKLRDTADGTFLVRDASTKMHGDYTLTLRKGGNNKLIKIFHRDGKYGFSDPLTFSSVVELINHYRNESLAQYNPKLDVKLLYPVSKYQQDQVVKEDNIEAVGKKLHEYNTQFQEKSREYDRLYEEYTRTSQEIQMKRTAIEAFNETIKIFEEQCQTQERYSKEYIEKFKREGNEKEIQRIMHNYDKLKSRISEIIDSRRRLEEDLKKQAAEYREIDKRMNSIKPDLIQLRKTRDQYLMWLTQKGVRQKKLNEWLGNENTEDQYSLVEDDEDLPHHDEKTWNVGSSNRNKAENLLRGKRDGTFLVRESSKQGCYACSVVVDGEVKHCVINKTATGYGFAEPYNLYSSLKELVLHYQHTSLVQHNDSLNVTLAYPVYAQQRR
Source text: as §1

CDK2/cyclinA(h) = CDK2/cyclinA(h) (Homo sapiens, UniProt P24941); details: atp_concentration=45, read-out: % of control remaining
Source text: as §1

CaMKI(h) = target: T5, CaMKI(h) (Homo sapiens, UniProt Q14012); details: atp_concentration=200, read-out: % of control remaining
T5 construct: gene CAMK1
T5 sequence (Q14012 whole entry): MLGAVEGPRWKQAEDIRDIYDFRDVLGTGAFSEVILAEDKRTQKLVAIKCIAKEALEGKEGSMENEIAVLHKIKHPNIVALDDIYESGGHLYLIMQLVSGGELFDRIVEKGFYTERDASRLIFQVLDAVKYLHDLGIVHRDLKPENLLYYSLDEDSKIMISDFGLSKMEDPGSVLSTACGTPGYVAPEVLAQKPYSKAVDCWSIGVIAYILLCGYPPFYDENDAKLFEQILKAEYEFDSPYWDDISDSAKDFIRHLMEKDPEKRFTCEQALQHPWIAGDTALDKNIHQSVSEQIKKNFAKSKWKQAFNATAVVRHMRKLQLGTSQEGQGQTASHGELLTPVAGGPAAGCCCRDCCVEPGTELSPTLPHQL
Source text: as §1

NEK2(h) = target: T6, NEK2(h) (Homo sapiens, UniProt P51955); details: atp_concentration=120, read-out: % of control remaining
T6 sequence (P51955 1-445): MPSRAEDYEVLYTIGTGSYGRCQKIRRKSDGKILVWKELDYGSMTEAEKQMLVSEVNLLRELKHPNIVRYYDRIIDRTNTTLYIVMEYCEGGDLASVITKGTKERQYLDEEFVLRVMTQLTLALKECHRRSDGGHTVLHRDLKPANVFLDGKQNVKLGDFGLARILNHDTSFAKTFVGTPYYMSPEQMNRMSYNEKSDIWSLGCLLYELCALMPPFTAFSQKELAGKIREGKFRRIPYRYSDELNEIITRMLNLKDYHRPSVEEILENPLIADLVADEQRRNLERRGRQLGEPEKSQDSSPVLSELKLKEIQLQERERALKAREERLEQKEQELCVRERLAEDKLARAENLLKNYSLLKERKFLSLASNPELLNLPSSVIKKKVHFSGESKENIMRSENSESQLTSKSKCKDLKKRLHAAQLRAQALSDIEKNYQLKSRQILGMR
Source text: as §1

IGF-1R(h) = target: T7, IGF-1R(h) (Homo sapiens, UniProt P08069); details: atp_concentration=200, read-out: % of control remaining
T7 construct: gene IGF1R
Source text: as §1

CDK1/cyclinB(h) = CDK1/cyclinB(h) (Homo sapiens, UniProt P06493); details: atp_concentration=45, read-out: % of control remaining
Source text: as §1

Fyn(h) = Fyn(h) (Homo sapiens, UniProt P06241); details: atp_concentration=70, read-out: % of control remaining
Fyn(h), sequence (P06241 whole entry): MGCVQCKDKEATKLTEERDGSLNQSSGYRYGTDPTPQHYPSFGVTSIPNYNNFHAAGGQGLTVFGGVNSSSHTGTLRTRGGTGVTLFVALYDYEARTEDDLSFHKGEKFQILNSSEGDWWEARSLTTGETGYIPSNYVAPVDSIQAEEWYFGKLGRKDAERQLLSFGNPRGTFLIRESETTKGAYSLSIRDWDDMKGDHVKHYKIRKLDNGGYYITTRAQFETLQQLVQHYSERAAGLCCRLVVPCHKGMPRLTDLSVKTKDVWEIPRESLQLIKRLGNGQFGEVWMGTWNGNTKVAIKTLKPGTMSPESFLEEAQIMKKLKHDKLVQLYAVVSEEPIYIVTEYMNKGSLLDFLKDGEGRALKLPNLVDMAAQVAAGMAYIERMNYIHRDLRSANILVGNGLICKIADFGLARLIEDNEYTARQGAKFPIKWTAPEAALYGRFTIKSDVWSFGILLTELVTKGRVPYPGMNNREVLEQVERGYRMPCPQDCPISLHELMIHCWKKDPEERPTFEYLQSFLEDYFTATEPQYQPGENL
Source text: as §1

PAK2(h) = PAK2(h) (Homo sapiens, UniProt Q13177); details: atp_concentration=90, read-out: % of control remaining
Source text: as §1

AMPKα1(h) = target: T8, AMPKα1(h) (Homo sapiens, UniProt Q13131); details: atp_concentration=45, read-out: % of control remaining
T8 construct: gene PRKAA1
T8 sequence (Q13131 whole entry): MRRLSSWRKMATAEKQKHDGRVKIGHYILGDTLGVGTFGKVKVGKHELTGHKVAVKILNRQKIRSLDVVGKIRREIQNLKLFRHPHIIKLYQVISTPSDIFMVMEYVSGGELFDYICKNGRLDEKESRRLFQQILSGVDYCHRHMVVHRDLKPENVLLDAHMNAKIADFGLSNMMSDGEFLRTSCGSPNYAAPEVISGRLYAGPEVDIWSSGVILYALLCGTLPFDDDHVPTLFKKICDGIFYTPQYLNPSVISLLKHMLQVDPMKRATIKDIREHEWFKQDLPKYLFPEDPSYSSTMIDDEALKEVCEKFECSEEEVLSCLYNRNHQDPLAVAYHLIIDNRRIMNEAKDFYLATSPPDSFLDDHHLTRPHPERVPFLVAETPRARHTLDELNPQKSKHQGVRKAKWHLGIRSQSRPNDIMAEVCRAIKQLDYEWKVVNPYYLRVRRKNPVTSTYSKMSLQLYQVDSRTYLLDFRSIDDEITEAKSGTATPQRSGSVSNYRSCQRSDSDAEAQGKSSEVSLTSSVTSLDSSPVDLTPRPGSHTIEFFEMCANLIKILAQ
T8 sequence (P54619 whole entry partner): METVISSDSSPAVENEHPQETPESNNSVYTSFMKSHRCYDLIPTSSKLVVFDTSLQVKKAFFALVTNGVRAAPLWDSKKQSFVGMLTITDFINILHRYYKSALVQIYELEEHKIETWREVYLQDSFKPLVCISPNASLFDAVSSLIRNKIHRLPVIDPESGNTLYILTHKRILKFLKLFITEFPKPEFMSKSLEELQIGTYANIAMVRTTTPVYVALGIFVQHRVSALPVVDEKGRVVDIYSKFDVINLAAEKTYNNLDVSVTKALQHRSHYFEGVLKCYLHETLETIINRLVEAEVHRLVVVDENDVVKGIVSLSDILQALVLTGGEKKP
T8 sequence (Q9Y478 whole entry partner): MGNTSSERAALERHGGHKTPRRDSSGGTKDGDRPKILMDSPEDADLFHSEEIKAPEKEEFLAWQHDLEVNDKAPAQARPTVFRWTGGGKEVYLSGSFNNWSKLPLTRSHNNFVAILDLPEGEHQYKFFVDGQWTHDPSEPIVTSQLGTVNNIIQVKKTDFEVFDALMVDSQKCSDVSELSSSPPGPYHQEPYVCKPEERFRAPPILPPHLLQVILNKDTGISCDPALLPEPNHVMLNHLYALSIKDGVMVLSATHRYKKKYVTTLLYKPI
Source text: as §1

For `CC(C)C(Nc1ncnc2[nH]ccc12)c1ccc2c(c1)S(=O)(=O)CCC2` (stereo not drawn) [ASAP-0008327], the remaining activity at 10 µM (Rse(h); batch_name=ASAP-0008327-001) was 115%, the remaining activity at 10 µM (PDGFRβ(h); batch_name=ASAP-0008327-001) was 99% and the remaining activity at 10 µM (Mnk2(h); batch_name=ASAP-0008327-001) was 89%. It also gave a remaining activity at 10 µM ([1]; batch_name=ASAP-0008327-001) of 101%, a remaining activity at 10 µM (CDK2/cyclinA(h); batch_name=ASAP-0008327-001) of 96% and a remaining activity at 10 µM (CaMKI(h); batch_name=ASAP-0008327-001) of 94%. For the same molecule, the remaining activity at 10 µM (NEK2(h); batch_name=ASAP-0008327-001) was 118%, the remaining activity at 10 µM (IGF-1R(h); batch_name=ASAP-0008327-001) was 88% and the remaining activity at 10 µM (CDK1/cyclinB(h); batch_name=ASAP-0008327-001) was 129%. For the same molecule, the remaining activity at 10 µM (Fyn(h); batch_name=ASAP-0008327-001) was 127%, the remaining activity at 10 µM (PAK2(h); batch_name=ASAP-0008327-001) was 110% and the remaining activity at 10 µM (AMPKα1(h); batch_name=ASAP-0008327-001) was 94%.
Work on `COc1ccc([C@@H](Cc2nnn[nH]2)NC(=O)c2ncnc3[nH]ccc23)cc1` [ASAP-0008340] yielded a remaining activity at 10 µM (Rse(h); batch_name=ASAP-0008340-001) of 88%, a remaining activity at 10 µM (PDGFRβ(h); batch_name=ASAP-0008340-001) of 102% and a remaining activity at 10 µM (Mnk2(h); batch_name=ASAP-0008340-001) of 84%. The remaining activity at 10 µM ([1]; batch_name=ASAP-0008340-001) was 102%, the remaining activity at 10 µM (CDK2/cyclinA(h); batch_name=ASAP-0008340-001) was 97% and the remaining activity at 10 µM (CaMKI(h); batch_name=ASAP-0008340-001) was 100%. For the same molecule, the remaining activity at 10 µM (NEK2(h); batch_name=ASAP-0008340-001) was 100%, the remaining activity at 10 µM (IGF-1R(h); batch_name=ASAP-0008340-001) was 106% and the remaining activity at 10 µM (CDK1/cyclinB(h); batch_name=ASAP-0008340-001) was 108%. For the same molecule, the remaining activity at 10 µM (Fyn(h); batch_name=ASAP-0008340-001) was 105%, the remaining activity at 10 µM (PAK2(h); batch_name=ASAP-0008340-001) was 102% and the remaining activity at 10 µM (AMPKα1(h); batch_name=ASAP-0008340-001) was 101%.
`CC(C)[C@@H](Nc1ncnc2[nH]c(-c3cnn(C)c3C#N)cc12)c1ccc2c(n1)OCCO2` [ASAP-0008418] showed a remaining activity at 10 µM (Rse(h); batch_name=ASAP-0008418-001) of 116%, a remaining activity at 10 µM (PDGFRβ(h); batch_name=ASAP-0008418-001) of 108% and a remaining activity at 10 µM (Mnk2(h); batch_name=ASAP-0008418-001) of 77%. For the same molecule, the remaining activity at 10 µM ([1]; batch_name=ASAP-0008418-001) was 92%, the remaining activity at 10 µM (CDK2/cyclinA(h); batch_name=ASAP-0008418-001) was 95% and the remaining activity at 10 µM (CaMKI(h); batch_name=ASAP-0008418-001) was 104%. The remaining activity at 10 µM (NEK2(h); batch_name=ASAP-0008418-001) was 94%, the remaining activity at 10 µM (IGF-1R(h); batch_name=ASAP-0008418-001) was 108% and the remaining activity at 10 µM (CDK1/cyclinB(h); batch_name=ASAP-0008418-001) was 95%. For the same molecule, the remaining activity at 10 µM (Fyn(h); batch_name=ASAP-0008418-001) was 56%, the remaining activity at 10 µM (PAK2(h); batch_name=ASAP-0008418-001) was 95% and the remaining activity at 10 µM (AMPKα1(h); batch_name=ASAP-0008418-001) was 116%.
